Data reported in patent US20210205389A1, “METHODS AND COMPOSITIONS FOR TREATING NON-SMALL CELL LUNG CANCER” (Chang Gung Medical Foundation Keelung Chang Gung Memorial …, priority 2015, published 2021).

Legend:
HUVEC cells = assay: Tube formation assay; format: cell-based; details: sorafenib 10 μM (positive control)
Description: Tube formation assay was used to test the inhibitory effect of Composition 3 (400 and 600 μg/ml) in HUVEC cells. Treatment of sorafenib was used as a positive control. […] All samples were assayed in triplicate. Four images were taken per well of a 96-well plate at 10×. The data were quantitated by calculating the pentagonal ring or hexagonal ring loop numbers of each well and used solvent control (DMSO) as 100%.
In addition to the study of the immune modulator role of Composition 3, whether Composition 3 might affect angiogenesis was also studied. To investigate the anti-angiogenesis ability of Composition 3, the effect of Composition 3 on HUVEC cells tube formation was first tested. In the normal condition, HUVEC cells will arrange into pentagon or hexagon shape in matrigel to form a tube.

[1] = test system: CL97 (gefitinib resistance cell line) xenograft; assay: CL97 xenograft tumor study; format: in vivo, NOD/SCID mice; details: oral; Gefitinib 100 mg/kg 2 times/week; C1 1 g/kg, C2 600 mg/kg, C3 150 mg/kg 5 days/week; 10 weeks
Description: Human lung cancer cell line CL97 (obtained from Dr. Pan-Chyr Yang's lab, 1 million cells/injection) were subcutaneously injected into the right flank of NOD/SCID mice (female, 4-6 weeks old) and allowed one-two week for tumor growth. […] Over the period of 10 weeks, tumorigenesis in both groups was measured using a caliper on a weekly basis. The change in tumor size was expressed as in fold change and plotted over time.

Compound | number of complete pentagon or hexagon tube (HUVEC cells) | Tumor reduction (%) [1] [%]
CNC(=O)c1cc(Oc2ccc(NC(=O)Nc3ccc(Cl)c(C(F)(F)F)c3)cc2)ccn1 [sorafenib] | significant decreased | 
COc1cc2ncnc(Nc3ccc(F)c(Cl)c3)c2cc1OCCCN1CCOCC1 [Gefitinib] |  | 8.8
